{"source": "patent US20230109839A1", "about": "“THERAPEUTIC AGENT FOR TAUOPATHIES” (SUMITOMO PHARMA CO., LTD., priority 2020, published 2023)", "type_in_all_cases": "in vivo, mouse", "key": {"rTg4510 mice": {"system": "rTg4510 mice", "assay": "Cerebral atrophy in rTg4510 mice, MRI volume of brain regions (Test 5)", "conditions": "for lateral ventricular volume (mm^3): 4.5 mg/g-food, with ABT 1 mg/g-food", "text": "(§1) Test 5: Evaluation of Intracerebral Tau Aggregate Accumulation and Cerebral Atrophy Using rTg4510 Mice\n(§2) This test is a test to evaluate the effects of the compounds on intracerebral tau aggregate accumulation and cerebral atrophy. The rTg4510 mice overexpress the human-type FTDP-17 mutant tau in the forebrain, and month-age-dependent intracerebral tau aggregate accumulation and cerebral atrophy are observed. The rTg4510 mice used herein were produced by mating Tg (tauP301L) 4510 mice (Stock No. 015815) and CaMKII-tTA mice (Stock No. 007004) purchased from The Jackson Laboratory and breeding them.\n(§3) The test compound was administered as a mixed diet to rTg4510 mice from the age of 4 months, and PET scan and MRI were performed at the ages of 4, 6 and 8 months to quantitatively evaluate the amount of the intracerebral tau aggregate accumulated and cerebral atrophy. The PET scan was performed using MicroPET Focus 220 of Siemens Medical Solutions (0.851 mm thick (intercenter) 95 slices, 19.0 cm axial field of view (FOV), and 7.6 cm intra-section FOV). The administration of radioactive compound [^18F] PM-PBB3 (precursor obtained from Aprinoia) and the PET scan were performed in dimly lit after the mice was treated with 1.5% isoflurane anesthesia to avoid […] of the radioactive compound. The emission scan was performed for 60 minutes immediately after the intravenous administration of [^18F] PM-PBB3 (1 mCi) (3D list mode, energy window: 350-750 keV). Then, the list mode data sorted into 3D synograms were converted into 2D synograms by Fourier-rebinding (frames: 4×1, 8×2 and 8×5 minutes). The dynamic image for 60 minutes after the administration of [^18F] PM-PBB3 was reconstructed by a filter-corrected back projection with a 0.5 mm Hanning filter. Regions of interest (ROI) were set in multiple brain regions using PMOD image analysis software (PMOD Technology) with reference to the MRI templates and the PET reconstructed images. Tau aggregate accumulation was evaluated by calculating SUVR (Standardized uptake value ratio) with the cerebellum as a reference region, based on the added average of dynamic images from 40 minutes to 60 minutes.\nThe evaluation of cerebral atrophy was performed with horizontal superconducting magnet type MRI (7T, inner diameter 400 mm, self-shielding type, zero boil-off type). The imaging was performed under isoflurane anesthesia while maintaining the rectal temperature at 36.5±0.5° C. After Tripilot acquisition, the brain images were acquired by TurboRARE T2 emphasis sequence (TR: 4200 ms, TE: 36 ms, Fat-Sup: on, NA: 4, RARE factor: 8, scan time: 14 min) (FOV read: 25.6 mm, FOV P1: 14.5 mm, Slice thickness: 0.5 mm, number of slices: 28). The ROI of each brain region was set in each of the acquired slices, and the volume of the brain region was calculated by summing the ROI areas of all the slices to evaluate the effect of the test compound."}, "[1]": {"system": "phosphorylated tau oligomer", "assay": "Evaluation of phosphorylated tau oligomers in brain of APP-Tg mice, Western blotting (Test 4)", "conditions": "for Reducing effect of phosphorylated tau oligomer: 7-10 days, with ABT 1 mg/g-food", "protocol": "Test 4: Evaluation of Phosphorylated Tau Oligomers Using APP-Tg Mice\nThis test is a test to quantify the oligomer of phosphorylated tau in the brain to evaluate the action of a compound. […] The APP-Tg mice used herein were prepared by the method described in Test 3.\nThe test compound administered with food to APP-Tg mice for 7-10 days. At this time, in order to increase the blood concentration of the test compound, ABT was used in combination with a mixed diet of 1 mg/g-food depending on the compound. After the administration, the brain was collected, and the protein is extracted from the collected brain using TBS (Tris Buffered Saline) or sarcosyl, and then SDS-PAGE (sodium dodecyl sulfate-polyacrylamide gel electrophoresis) of the soluble or insoluble fraction was performed. After that, Western blotting was performed using an anti-oligomerized tau antibody (Anti-Tau, oligomeric, clone TOMA-1), and the effect of the test compound was evaluated by quantifying the band amount of the phosphorylated tau oligomer.\nThe reducing effect of phosphorylated tau oligomer was calculated by the following formula, and from the calculated values, the results were defined as follows: 0-25%: +, 25-50%: ++, 50-75%: +++, and 75-100%: ++++. The significant difference from the vehicle-administered group was determined using the Student t-test. For the band amount, the value corrected by the β-actin band amount was used.\nReducing effect of phosphorylated tau oligomer={(band amount of oligomerized tau in vehicle-administered group−band amount of oligomerized tau in test compound-administered group)/band amount of oligomerized tau in vehicle-administered group}×100"}, "[2]": {"system": "intracerebral tau aggregate accumulation", "assay": "Intracerebral tau aggregate accumulation in rTg4510 mice, tau PET with [18F] PM-PBB3, SUVR (Test 5)", "conditions": "for SUVR(cerebellum ratio) cerebral neocortex / SUVR(cerebellum ratio) hippocampus: 4.5 mg/g-food, with ABT 1 mg/g-food", "text": "as §1, §2, §3"}, "[3]": {"conditions": "mixed diet 4.5 mg/g-food with ABT 1 mg/g-food"}}, "note": "“Also recorded” adds a separate entry of the source."}
{"compound": "N#Cc1ccc(NC(=O)Cn2nc(N3CCC4(CC4)C(F)(F)C3)ccc2=O)cn1", "note": "[Example 560, N-(6-cyanopyridin-3-yl)-2-[3-(4,4-difluoro-6-azaspiro[2.5]octan-6-yl)-6-oxopyridazin-1(6H)-yl]acetamide]", "values": [{"measurement": "lateral ventricular volume (mm^3)", "setting": "rTg4510 mice; 4 month old", "result": "0.47 ± 0.06", "unit": "mm^3"}, {"measurement": "lateral ventricular volume (mm^3)", "setting": "rTg4510 mice; 6 month old", "result": "0.34 ± 0.10", "unit": "mm^3"}, {"measurement": "lateral ventricular volume (mm^3)", "setting": "rTg4510 mice; 8 month old", "result": "0.71 ± 0.35", "unit": "mm^3"}, {"measurement": "age-dependent increase in lateral ventricular volume", "setting": "rTg4510 mice; [3]", "result": "suppressed"}, {"measurement": "Reducing effect of phosphorylated tau oligomer", "setting": "[1]; dose 0.5 mg/g-food", "result": "++ (25-50%: ++)"}, {"measurement": "Reducing effect of phosphorylated tau oligomer", "setting": "[1]; dose 4.5 mg/g-food", "result": "++++ (75-100%: ++++)"}, {"measurement": "reducing effect of tau oligomer", "setting": "[1]; with food for 7-10 days, ABT 1 mg/g-food depending on the compound, brain, anti-oligomerized tau antibody TOMA-1", "result": "some reducing effect of tau oligomer; also recorded: strong reducing effect of tau oligomer"}, {"measurement": "SUVR(cerebellum ratio) cerebral neocortex", "setting": "[2]; 4 month old", "result": "1.026 ± 0.037"}, {"measurement": "SUVR(cerebellum ratio) hippocampus", "setting": "[2]; 4 month old", "result": "1.103 ± 0.036"}, {"measurement": "SUVR(cerebellum ratio) cerebral neocortex", "setting": "[2]; 6 month old", "result": "1.224 ± 0.060"}, {"measurement": "SUVR(cerebellum ratio) hippocampus", "setting": "[2]; 6 month old", "result": "1.328 ± 0.078"}, {"measurement": "SUVR(cerebellum ratio) cerebral neocortex", "setting": "[2]; 8 month old", "result": "1.351 ± 0.049"}, {"measurement": "SUVR(cerebellum ratio) hippocampus", "setting": "[2]; 8 month old", "result": "1.468 ± 0.056"}, {"measurement": "age-dependent increase in SUVR in the cerebral neocortex and hippocampus (FIG. 7)", "setting": "[2]; [3]", "result": "tended to be suppressed"}, {"measurement": "increase in PET tracer accumulation in each brain region with aging (average SUVR images, FIG. 6)", "setting": "[2]; mixed diet 4.5 mg/g-food with ABT 1 mg/g-food, ages 4, 6 and 8 months", "result": "suppressed"}]}
